From publication PMC10317875, “PET imaging of PARP expression using ^68Ga-labelled inhibitors” (European Journal of Nuclear Medicine and Molecular Imaging, 2023)

Key:
[1] = Partition coefficient log P (octanol/ultrapure water); assay type: physicochemical; details: ultrapure water/octanol = 1/1
Description: Log P: Generally, approximately 74–185 kBq of the ^68Ga-labelled radiotracer was combined with a solvent mixture (2 mL, ultrapure water/octanol = 1/1). After 5 min of agitation in a vortex mixer, the aqueous and nonaqueous phases were separated by centrifugation at 15000 g. The radioactivity of each sampling layer (100 μL) was measured using a γ-counter. The trial was conducted five times.

SK-OV-3 models [2] = assay: MicroPET/CT imaging of SK-OV-3 models; assay type: in vivo, BALB/c nude mice
Description: (§1) Female BALB/c nude mice (6–8 weeks old) were utilized in all tumor-bearing mouse experiments. Twelve BALB/c nude mice were subcutaneously injected with SK-OV-3 cells (1 × 10^6) into the right armpit. The mice were used for investigation after the tumor diameter reached approximately 0.5–1.1 cm.
Six SK-OV-3 models were separated into two groups (^68Ga-labelled radiotracers and blocked groups). The ^68Ga-labelled radiotracers (2.96–5.55 MBq in 200 μL of saline) were administered via tail vein injection. Approximately 5 min before PET acquisition, the mice were anaesthetized by inhalation of a mixture of isoflurane and positioned in the scanner. The PET data for each mouse were acquired at 0.5, 1, and 2 h after injection. In the blocking studies, ^68 Ga-DOTA-Olaparib was injected with a 500-fold excess of Olaparib (562.68 μg) in 200 μL of a solution consisting of 75% saline and 25% DMSO (dimethyl sulfoxide). PET acquisition was performed at 1 h postinjection. The target tissue’s radioactivity content was measured, and the tissue-associated activity was expressed as %ID/g.

[3] = Plasma protein binding (ultrafiltration); assay type: in vitro ADME; details: mouse plasma
Description: To evaluate the plasma protein binding of the ^68Ga-labelled radiotracers, mouse blood from the heart was centrifuged at 4000 g for 5 min. The upper layer of blood was transferred to an EP tube and stored overnight in a refrigerator at 4 °C.
One hundred microliters of the ^68Ga-labelled radiotracer solution (0.74–1.48 MBq) was incubated with 100 μL of the above plasma. After 0.5, 1, and 2 h of incubation, the mixture was centrifuged at 15000 g for 10 min in a 30 K ultrafiltration tube. The radioactivity of the membrane and eluate was detected with a γ-counter. The radioactivity from the membrane, representing the tracer bound to plasma proteins, was estimated as a proportion of the total radioactivity of the sample. The experiment was repeated in triplicate.

[4] = Pharmacokinetics (blood clearance) in normal mice; assay type: in vivo; details: tail vein injection, blood radioactivity
Description: The pharmacokinetic parameters of the three ^68Ga-labelled radiotracers were evaluated in normal mice. The three ^68Ga-labelled radiotracers were injected into mice via the tail veins at a dose of 1.48–2.96 MBq/mouse in approximately 200 μL. Blood samples were obtained via the tail vein using tared capillary tubes at 1, 3, 5, 10, 15, 30, 60, 120, and 180 min after radiotracer injection. The blood volume drawn was approximately 0.5–0.8 dispense capillary volumes at each time point. Dispense capillary tube was from Shanghai Great Wall Scientific Instruments Store (size: 0.5 × 100; diameter: 0.5 mm; length: 100 mm). The radioactivity was determined with a γ-counter and decay-corrected to the injection time. All samples were weighed. The radioactive CPM (counts per minute) by dividing by the mass of blood in the capillary are presented as %ID/g. Finally, the pharmacokinetic parameters were analysed by GraphPad Prism 9.0.

[5] = Partition coefficient log D7.4 (octanol/PBS); assay type: physicochemical; details: PBS (pH = 7.4)/octanol = 1/1
Description: Log D7.4: Similarly, approximately 74–185 kBq of the ^68Ga-labelled radiotracer was combined with a solvent mixture (2 mL, PBS (pH = 7.4)/octanol = 1/1). The partition coefficient experiment was repeated, as mentioned previously.

SK-OV-3 and A549 cells = assay: Cell uptake of radiotracers in SK-OV-3 and A549 cells; assay type: cell-based; details: 2 h incubation at 37 °C
Description: SK-OV-3 and A549 cells were seeded in 6-well plates (500 × 10^3/well) for 24 h. Then, the cells were incubated separately with the three ^68Ga-labelled radiotracers (740 kBq/1 mL in each well) at 37 °C. To eliminate unbound ^68Ga-labelled radiotracers, the cells were rinsed three times with PBS (0.5 mL) 2 h after incubation. Cell suspensions were produced after adding pancreatin (0.5–0.8 mL). Finally, a γ-counter was used to measure the radioactivity. The radioactivity data are presented as CPM (counts per minute) with time-decay correction. Three replicate experiments were conducted.

SK-OV-3 models [6] = assay: Ex vivo biodistribution in SK-OV-3 models; parameters: species or system BALB/c nude mice
Description: as §1
(§2) Biodistribution experiments were conducted with SK-OV-3 models (10–12 weeks old, n = 3). ^68Ga-DOTA-Olaparib (1.85–5.55 MBq of ^68Ga-DOTA-Olaparib in 200 μL of saline) was administered via the lateral tail vein. After allowing the medication to circulate for varying amounts of time (0.5, 1, and 2 h), three mice were sacrificed. The tissue radioactivity (tumor, blood, muscle, bone, liver, spleen, kidney, heart, lung, bladder, brain, small intestine, and stomach) was measured using a γ-counter. The organs were weighed, and the γ-counter activity readings were decay-corrected to the injection time. Finally, the associated tissue activity was calculated by GraphPad Prism 9.0, and the data are expressed as %ID/g.
To verify specific tumor accumulation, ^68Ga-DOTA-Olaparib was administered with a 500-fold excess of Olaparib (530.94 μg) in 200 μL of a solution containing 75% saline and 25% DMSO via the lateral tail vein. After 1 h, mice (n = 3) were sacrificed to collect the tissues of interest. The associated tissue activity was measured as described above.

[7] = Ex vivo biodistribution in normal mice; details: 5-180 min after injection
Description: Normal mice (6–8 weeks old, n = 5) were utilized in the biodistribution experiments. ^68Ga-DOTA-Olaparib (0.74–2.96 MBq of 200 μL of saline) was administered via the lateral tail vein. The medication was allowed to circulate for 5, 15, 30, 60, 120, and 180 min before the mice were sacrificed. The radioactivity in the target tissues (blood, muscle, bone, liver, spleen, kidney, heart, lung, bladder, brain, small intestine, and stomach) was measured using a γ-counter. The organs were weighed, and the γ-counter activity readings were decay-corrected to the injection time. The corresponding tissue activity was then assessed using GraphPad Prism 9.0, and the data are presented as %ID/g using the following formula: [(activity in the target organ/target organ quality)/injected dose] * 100%.

A549 models = assay: Ex vivo biodistribution in A549 models; parameters: species or system mice; details: 1 h
Description: as §2, with “To further compare and validate the specific uptake of ^68Ga-DOTA-Olaparib in different tumor models, biodistribution” for “Biodistribution”, “A549” for “SK-OV-3”, “(1.22–5.59” for “(1.85–5.55”

PARP-1 in SK-OV-3 cells = assay: In vitro cell localization, FL-Olaparib confocal fluorescence with competition; details: FL-Olaparib 250 nM, presaturation with 1000-fold molar excess of competitor
Description: SK-OV-3 cells were plated on a confocal petri dish (diameter = 60 mm) at 500 × 10^3 cells/well density. […] The confocal dish was protected from light by wrapping it in tin foil. Three PBS washes (10 min each) were performed on each cell type. Paraformaldehyde was added for cell fixation, and DAPI was added for nuclear staining. The cells were rinsed twice with medium and once with PBS (5 min per wash) and observed using a confocal microscope (LEICA TCS SP5 II).
After 1 h of incubation, to determine the uptake by SK-OV-3 cells, assays were carried out and repeated as stated above.

[8] = target: T1, PARP-1 protein (human, Recombinant (His Tag)) (Homo sapiens, UniProt P09874); assay: Surface plasmon resonance (SPR) binding assay; details: SPR imaging
T1 construct: His tag; purchased Sino Biological 11,040-H08B
Description: Furthermore, the compound Olaparib was used as a reference for affinity. The surface plasmon resonance binding assays were conducted according to the previous protocol.

SMILES | log Poctanol/water [1] | tumor uptake (PET/CT) (SK-OV-3 models [2]; 0.5 h after injection) [%ID/g] | tumor uptake (PET/CT) (SK-OV-3 models [2]; 1 h after injection) [%ID/g] | tumor uptake (PET/CT) (SK-OV-3 models [2]; 2 h after injection) [%ID/g] | plasma protein binding ([3]; 0.5 h) [%] | plasma protein binding ([3]; 1 h) [%] | plasma protein binding ([3]; 2 h) [%] | clear-phase half-life (t1/2β) [4] [min] | distribution-phase half-life (t1/2α) [4] [min] | log Doctanol/PBS [5] | SK-OV-3/A549 uptake ratio (SK-OV-3 and A549 cells) | further results
O=C([O-])CN1CCN(CC(=O)O)CCN(CC(=O)[O-])CCN(CC(=O)NCCCC(=O)N2CCN(C(=O)c3cc(Cc4n[nH]c(=O)c5ccccc45)ccc3F)CC2)CC1.[68Ga+3] [68Ga-DOTA-GABA-Olaparib] | -2.16 ± 0.12 | 0.96 ± 0.14 | 0.56 ± 0.12 | 0.98 ± 0.53 | 59.62 ± 2.40 | 83.84 ± 1.42 | 58.13 ± 6.63 | 47.69 | 0.31 | -2.49 ± 0.15 | 2.43 ± 0.45 | 
O=C([O-])CN1CCN(CC(=O)O)CCN(CC(=O)[O-])CCN(CC(=O)N2CCN(C(=O)c3cc(Cc4n[nH]c(=O)c5ccccc45)ccc3F)CC2)CC1.[68Ga+3] [68Ga-DOTA-Olaparib] | -2.33 ± 0.028 |  | ~2.37 ± 0.37 | ~2.27 ± 0.32 | 20.59 ± 1.23 | 32.85 ± 4.11 | 24.04 ± 0.80 | 22.82 | 1.97 | -2.56 ± 0.026 | 1.47 ± 0.019 | tumor/intestine ratio (SK-OV-3 models [6]; 1 h after administration): 2.05 ± 0.072; tumor/stomach ratio (SK-OV-3 models [6]; 1 h after administration): 2.97 ± 0.73; T/M ratio (ex vivo biodistribution) (SK-OV-3 models [6]; 2 h): 12.64 ± 1.32; tumor-to-bone ratio (ex vivo biodistribution) (SK-OV-3 models [6]; 2 h): 3.85 ± 0.68; tumor-to-brain ratio (ex vivo biodistribution) (SK-OV-3 models [6]; 2 h): 15.63 ± 1.58; bladder accumulation (SK-OV-3 models [6]; SK-OV-3 models, 0.5 h): 5.80 ± 1.47 %ID/g; kidneys accumulation (SK-OV-3 models [6]; SK-OV-3 models, 0.5 h): 3.11 ± 0.29 %ID/g; bladder accumulation (SK-OV-3 models [6]; SK-OV-3 models, 1 h): 2.57 ± 0.72 %ID/g; kidneys accumulation (SK-OV-3 models [6]; SK-OV-3 models, 1 h): 4.24 ± 0.22 %ID/g; tumor radioactivity (ex vivo biodistribution), blocked (SK-OV-3 models [6]; SK-OV-3 models, 1 h, 500-fold excess of Olaparib): 0.25 ± 0.027 %ID/g; tumor radioactivity (ex vivo biodistribution) (SK-OV-3 models [6]; SK-OV-3 models, 1 h postinjection): 1.26 ± 0.17 %ID/g; bladder accumulation (SK-OV-3 models [6]; SK-OV-3 models, 2 h): 0.064 ± 0.025 %ID/g; kidneys accumulation (SK-OV-3 models [6]; SK-OV-3 models, 2 h): 2.51 ± 0.33 %ID/g; T/M (tumor-to-muscle) ratio (PET/CT) (SK-OV-3 models [2]; 0.5 h): approximately 3.54 ± 0.74; T/M (tumor-to-muscle) ratio (PET/CT), blocked (SK-OV-3 models [2]; 1 h, blocked with a 500-fold excess of Olaparib): 1.79 ± 0.26; T/M (tumor-to-muscle) ratio (PET/CT) (SK-OV-3 models [2]; 1 h, unblocked): ~4.07 ± 0.59; T/M (tumor-to-muscle) ratio (PET/CT) (SK-OV-3 models [2]; 2 h): ~7.31 ± 0.51; order of clearance from the body [7]: kidney-bladder-urine; tumor uptake (ex vivo biodistribution) (A549 models): 0.43 ± 0.10 %ID/g
O=C(O)CN1CCN(CC(=O)O)CCN(CC(=O)N2CCN(C(=O)c3cc(Cc4n[nH]c(=O)c5ccccc45)ccc3F)CC2)CCN(CC(=O)O)CC1 [DOTA-Olaparib] |  |  |  |  |  |  |  |  |  |  |  | effect on FL-Olaparib fluorescence signals (PARP-1 in SK-OV-3 cells): substantial reduction in fluorescence signals; Kd [8]: 14.5 nM
O=C([O-])CN1CCN(CC(=O)O)CCN(CC(=O)[O-])CCN(CC(=O)NCC(=O)NCC(=O)NCC(=O)N2CCN(C(=O)c3cc(Cc4n[nH]c(=O)c5ccccc45)ccc3F)CC2)CC1.[68Ga+3] [68Ga-DOTA-(Gly)3-Olaparib] | -1.62 ± 0.075 | 0.96 ± 0.13 | 0.57 ± 0.068 | 0.91 ± 0.11 | 39.32 ± 1.89 | 43.08 ± 7.20 | 43.56 ± 5.24 | 23.19 | 0.40 | -1.75 ± 0.11 | 1.63 ± 0.13 | 
